This is an account of results in PMC8713164, “Development of a 1,2,4-Triazole-Based Lead Tankyrase Inhibitor: Part II” (Journal of Medicinal Chemistry, 2021).

≈ marks a conversion by molar mass, not a printed value. Like-named read-outs stand apart in the source and are kept apart here.

Data set [1] can be described thus: mouse plasma protein binding. Type of data set: in vitro ADME. The note with it: read-out: mouse PPB (converted). As to the method: (§1) Kinetic solubility, microsomal stability, and plasma stability were determined following our internal protocol (Symeres). The Caco-2 and PPB determinations were performed by Cyprotex.
The next data set has as its target PARP1/2/3/4/10/12/14/15. As to the kind of experiment: PARP enzyme panel, summary line of Table 5. Type of data set: biochemical. The settings on record: one bound for all eight PARPs. As to the method: (§2) All reactions were performed at ambient temperature.
(§3) The assay conditions for the other PARP enzymes were used as previously described.[39]

Another data set is described as follows: kinetic solubility. The settings on record: PBS pH = 7. It is filed as physicochemical. As to the method:
as §1

A further data set has as its system RKO cells. As to the kind of experiment: MTS colorimetric cell growth assay, RKO. It is filed as cell-based, human. As to the method: (§4) After 5 days, the antiproliferative effect of compound treatment was measured at 490 nm. Mean value ± standard deviation (SD) for one representative experiment of more than three repeated assays, each with six replicates, are shown. […] (b) Representative immunoblots of cytoplasmic TNKS1/2, AXIN1, AXIN2, and cytoplasmic and nuclear transcriptionally active β-catenin (non-phospho) and β-catenin. […] For (b) and (c), control = 0.001% DMSO. (c) Real-time RT-qPCR analyses of WNT/β-catenin signaling target genes (AXIN2, DKK1, NKD1, and APCDD1). Boxplots show median, first and third quartiles, and maximum and minimum whiskers for combined data from three independent experiments with three replicates each. Dotted lines depict the control mean value = 1. For (a) and (c), analysis of variance (ANOVA) tests (Holm–Sidak method, versus control) are indicated by *** (p < 0.001) and * (p < 0.05), while ANOVA on ranks tests (Dunn’s method, versus control) are indicated by ^† (p < 0.05).
Antiproliferative assays using colon cancer cell lines COLO 320DM and RKO were performed as previously described.[39]

A further data set relates to COLO 320DM cells. The data set is described as follows: real-time qRT-PCR of WNT/β-catenin target genes in COLO 320DM cells. The note with it: dose-dependent. It is filed as cell-based, human. As to the method:
as §4
In general terms: In qPCR the cycle at which signal appears reflects the starting amount.

Data set [2] can be described thus: microsomal stability, human. Type of data set: in vitro ADME. The settings on record: microsomes. As to the method: as §1
Another data set concerns the target T1, PARP3 (Homo sapiens, UniProt Q9Y6F1).
T1 construct: made in house
As to the kind of experiment: PARP3 biochemical assay. The settings on record: > under 50% inhibition. As to the method: The enzymatic assay measures unreacted NAD^+, which is chemically reacted into a fluorescent compound.[53] […] All reactions were performed at ambient temperature.
The assay conditions for the other PARP enzymes were used as previously described.[39] Reference compound OD336 behaved in this assay as previously reported.[28]

A further data set deals with T2, PARP4 (Homo sapiens, UniProt Q9UKK3).
T2 construct: made in house
T2 sequence (Q9UKK3 whole entry): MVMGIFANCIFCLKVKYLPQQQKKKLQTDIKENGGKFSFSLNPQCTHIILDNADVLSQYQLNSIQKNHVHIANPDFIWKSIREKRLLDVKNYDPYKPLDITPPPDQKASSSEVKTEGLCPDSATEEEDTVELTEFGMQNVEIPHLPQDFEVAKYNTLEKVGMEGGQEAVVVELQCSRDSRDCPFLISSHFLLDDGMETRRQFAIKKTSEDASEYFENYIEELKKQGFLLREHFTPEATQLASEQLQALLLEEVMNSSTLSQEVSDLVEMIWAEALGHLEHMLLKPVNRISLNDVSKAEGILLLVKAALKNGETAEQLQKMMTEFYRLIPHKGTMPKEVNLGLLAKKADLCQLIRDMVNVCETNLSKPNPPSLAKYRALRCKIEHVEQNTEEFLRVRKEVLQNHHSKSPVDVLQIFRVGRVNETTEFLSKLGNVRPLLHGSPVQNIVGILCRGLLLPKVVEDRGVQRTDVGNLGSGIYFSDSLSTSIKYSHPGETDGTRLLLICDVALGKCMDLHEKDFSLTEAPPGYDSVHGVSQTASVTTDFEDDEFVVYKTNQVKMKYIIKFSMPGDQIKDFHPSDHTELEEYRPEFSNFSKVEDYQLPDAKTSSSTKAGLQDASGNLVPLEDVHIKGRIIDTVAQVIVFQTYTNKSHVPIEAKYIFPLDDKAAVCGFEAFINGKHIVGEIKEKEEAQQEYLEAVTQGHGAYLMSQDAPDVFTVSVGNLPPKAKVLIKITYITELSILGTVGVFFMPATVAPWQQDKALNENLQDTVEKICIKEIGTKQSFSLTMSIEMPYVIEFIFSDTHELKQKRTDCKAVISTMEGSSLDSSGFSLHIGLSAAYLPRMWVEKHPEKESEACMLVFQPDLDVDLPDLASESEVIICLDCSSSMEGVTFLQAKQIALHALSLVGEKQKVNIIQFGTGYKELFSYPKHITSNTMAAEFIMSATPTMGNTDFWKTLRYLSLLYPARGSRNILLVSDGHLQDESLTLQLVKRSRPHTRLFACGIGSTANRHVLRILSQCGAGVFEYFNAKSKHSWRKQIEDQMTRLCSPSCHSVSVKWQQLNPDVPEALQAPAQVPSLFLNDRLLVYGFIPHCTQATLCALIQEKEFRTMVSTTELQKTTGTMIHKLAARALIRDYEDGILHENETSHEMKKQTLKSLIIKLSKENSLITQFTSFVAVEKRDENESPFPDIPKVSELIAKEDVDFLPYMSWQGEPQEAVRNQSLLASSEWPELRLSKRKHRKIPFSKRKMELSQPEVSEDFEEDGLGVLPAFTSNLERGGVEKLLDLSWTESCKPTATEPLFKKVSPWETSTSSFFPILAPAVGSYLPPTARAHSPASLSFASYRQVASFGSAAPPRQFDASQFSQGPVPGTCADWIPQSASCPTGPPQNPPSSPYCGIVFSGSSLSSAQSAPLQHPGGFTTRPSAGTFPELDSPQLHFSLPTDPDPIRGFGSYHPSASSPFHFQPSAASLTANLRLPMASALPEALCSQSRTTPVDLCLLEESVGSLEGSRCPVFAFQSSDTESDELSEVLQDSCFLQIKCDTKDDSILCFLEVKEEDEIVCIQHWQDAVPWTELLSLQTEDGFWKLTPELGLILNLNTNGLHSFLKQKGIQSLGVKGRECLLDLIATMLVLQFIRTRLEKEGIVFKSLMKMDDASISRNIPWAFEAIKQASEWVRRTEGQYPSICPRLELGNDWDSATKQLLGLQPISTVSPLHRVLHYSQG
As to the kind of experiment: PARP4 biochemical assay. The note with it: > under 50% inhibition. As to the method:
as §2, §3

The next data set is described as follows: in vitro. It is filed as in vitro ADME. The note with it: human, Caco-2. As to the method: as §1
Another data set relates to WNT/β-catenin signaling. As to the kind of experiment: cellular (HEK293) WNT/β-catenin signaling luciferase reporter assay. It is filed as cell-based, human. The settings on record: for IC50: Homo sapiens. (In general: A reporter such as luciferase makes a cellular process visible.)

The term solubility (kinetic) denotes the concentration staying in solution when a stock, usually in DMSO, is diluted into the medium. The term GI50 denotes the concentration at which growth is held to half of that of the control. By microsomal CLint is commonly meant the capacity of the preparation to metabolise the compound, expressed as a volume cleared per time. Lower therefore signals greater metabolic stability. A word on the Papp A→B: it is the apparent permeability from the apical to the basolateral side of a cell layer. A low value points to poor permeation. As usually defined, the efflux ratio is a quotient of directional permeabilities that is used to spot active efflux.

T1 sequence (Q9Y6F1 whole entry): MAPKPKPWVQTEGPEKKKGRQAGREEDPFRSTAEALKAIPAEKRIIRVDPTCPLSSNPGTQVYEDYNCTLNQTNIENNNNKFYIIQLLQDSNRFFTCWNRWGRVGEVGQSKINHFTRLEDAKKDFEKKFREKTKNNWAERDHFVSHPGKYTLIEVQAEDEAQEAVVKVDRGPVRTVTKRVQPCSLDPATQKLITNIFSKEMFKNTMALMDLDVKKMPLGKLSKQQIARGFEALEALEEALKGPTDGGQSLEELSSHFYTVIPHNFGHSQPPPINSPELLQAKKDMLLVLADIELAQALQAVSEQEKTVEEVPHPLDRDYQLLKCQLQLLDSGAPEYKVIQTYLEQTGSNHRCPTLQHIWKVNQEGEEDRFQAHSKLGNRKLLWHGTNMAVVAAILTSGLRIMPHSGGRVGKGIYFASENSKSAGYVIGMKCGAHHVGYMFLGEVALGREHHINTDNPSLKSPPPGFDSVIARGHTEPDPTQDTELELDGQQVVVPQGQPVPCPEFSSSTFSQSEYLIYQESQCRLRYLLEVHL

As to `CCOc1ccc(-c2nnc([C@H]3C[C@H](NC(=O)c4cccc5nccnc45)C3)n2-c2ccccc2F)nc1` [Compound 24, N-(trans-3-(5-(5-Ethoxypyridin-2-yl)-4-(2-fluorophenyl)-4H-1,2,4-triazol-3-yl)cyclobutyl)quinoxaline-5-carboxamide], the fraction unbound in [1] was 0.0142. In addition, the IC50 on PARP1/2/3/4/10/12/14/15 was > 10 µM; at PARP3, > 100 µM; on PARP4 it was > 100 µM; in the data set on WNT/β-catenin signaling (HEK293, read-out: HEK293 reporter assay pIC50 ± SEM (converted)), 0.000603 µM; in the data set on WNT/β-catenin signaling (HEK293, read-out: IC50 HEK293, HEK293 WNT/β-catenin signaling reporter assay, triplicates, 24: averages of multiple independent measurements), 0.00063 µM. Moreover, the kinetic solubility at 1 h in the data set “kinetic solubility” is 31 µM (≈ 15.8 µg/mL). Further, in the data set with RKO cells (APC wild-type control colon cancer line), the “effect of treatment on RKO cell viability” value is “only modestly affected”. Also, the GI50 in the data set with RKO cells (Homo sapiens, RKO, 120 h, read-out: RKO cells GI50) is > 10 µM. For the same compound, the “transcripts of WNT/β-catenin target genes AXIN2, DKK1, NKD1, APCDD1” value with COLO 320DM cells is listed as “reduced levels”. Besides, the microsomal CLint at 1 h in data set [2] turned out to be 18 µL/min/mg. Further, the Papp A→B at 2 h, 10 µM in “in vitro” came to 40.5 ×10⁻⁶ cm/s. In “in vitro”, the efflux ratio was 0.64. For the same compound, the “efficacy in the cellular WNT/β-catenin signaling reporter assay relative to 1” value with WNT/β-catenin signaling (times higher than 1) is on record as “approximately 30 times”.
